# Entries after “also recorded” stand apart in the source; their conditions may differ.
# Experiments:
# [1] = test system: OVCAR420, T24, ECC1, HepG2, Hep3B, T98G, SUDHL4, SUDHL6, HCT116 and docetaxel-resistant C4-2B cells; experiment: CellTiter-GLO viability, cells of other cancer types; assay type: cell-based, human; conditions: ovarian OVCAR420, bladder T24, endometrial ECC1, liver HepG2 and Hep3B, glioblastoma T98G, DLBCL SUDHL4 and SUDHL6, colon HCT116, docetaxel-resistant C4-2B; 4 days
# Method: (§1) For cell viability, cells were seeded in 96-well plates at 1500-2500 cells per well (optimum density for growth) in a total volume of 100 μl media. Serially diluted compounds in […] of media were added to the cells 12 hours later. After 4 days of incubation, Cell-Titer GLO reagents (Promega) were added and luminescence was measured on GLOMAX microplate luminometer (Promega), according to the manufacturer's instructions. All experimental points were set up as sextuplicate as biological replication and the entire experiments were repeated three times. The data are presented as percentage of viable cells with vehicle treated cells set as 100. The estimated in vitro IC50 values were calculated using GraphPad Prism 6 software.
# (§2) Using a CellTiter-GLO assay, the viability of cells of different cancer types was measured after treatment with different concentrations of RORγ small molecule inhibitors for 4 days.
# breast cancer cells = experiment: CellTiter-GLO viability, breast cancer cells; assay type: cell-based, human
# Method: as §1, §2
# AR-negative PCa cells = experiment: Prostate cancer cell growth and survival, AR-negative cells; assay type: cell-based, human
# Method: as §1
# (§3) For apoptosis, Terminal deoxynucleotidyl transferase-mediated dUTP nick end labeling (TUNEL) was performed by using in situ cell death detection kit (Roche) as previously described^56. The results are expressed as a percentage of apoptotic cell number/total cell number. Caspase-3/7 activity was measured using a luminescent caspase-Glo 3/7 assay kit (Promega Corporation, Madison, USA) following the manufacturer's instructions. For cell growth, cells were seeded in 6-well plates at 2×10^5 per well and treated as indicated. Total viable cell numbers were counted using a Coulter cell counter. For colony formation, 800 cells were seeded in a well of 6-well plates and cultured for 14 days with the medium changed every 3 days. When the cell clone grew visible, the medium was removed and the cells were fixed with […] formalin for 10 minutes. Then the plates were washed with PBS for two times and the cell colonies were stained with 0.2% crystal violet (in 10% formalin) for 15 minutes. The numbers of cell colonies were counted after washed 5 times by PBS. The above assays were performed in triplicates and the entire experiments were repeated three times.
# AR-positive PCa cells = experiment: Prostate cancer cell growth and survival (cell viability / cell growth); assay type: cell-based, human; conditions: for inhibition of AR-positive PCa cell growth and survival: different cell line models; for growth-inhibitory effect in prostate cancer cells: cell viability, 4 d (FIGS. 7B, 7C)
# Method: as §1, §3
# MCF-7-TamR cell line = experiment: Growth of tamoxifen-resistant breast cancer cells; assay type: cell-based, human
# Method: as §2
# AR and AR-V7 = experiment: AR and AR variant expression (immunoblotting, qRT-PCR); assay type: cell-based, human
# Method: Total RNA was isolated from cells in 6-well or 10-cm plates or from xenograft tumors, and the cDNA was prepared, amplified and measured in the presence of SYBR as previously^49. Briefly, the fluorescent values were collected and a melting curve analysis was performed. Fold difference was calculated as described previously^49. The experiments were performed at least three times with data presented as mean values±s.d. Cell lysates were analyzed by immunoblotting with antibodies specifically recognizing RORγ, AR, AR-V7 and the indicated proteins. The PCR primers and all the antibodies used in this study are described in the Tables 3 and 4.
# 22Rv1 xenografts = experiment: 22Rv1 xenograft tumor growth; assay type: in vivo, mice
# Method: Four-week-old male SCID C.B17 mice (for C4-2B and VCaP) or BALB/c nu/nu athymic mice (for 22Rv11 and PC-3) were purchased from Harlan Inc. For establishing tumors, 2×10^6 cells were suspended in total of 100 μL PBS/Matrigel (1:1) and implanted subcutaneously into the dorsal flank on both sides of the mice. Animal group size of six or more was estimated to have a high statistic power, based on power calculation (http://www.biomath.info/power/) and previous studies involving the same xenograft models^34,68. When the tumor volume was approximately 80 mm^3, the mice were randomized and then treated intraperitoneally (i.p.) with 100 μl of either vehicle or RORγ antagonists SR2211, XY011/8k (in a formulation of 15% Cremophor EL, Calbiochem, 82.5% PBS, and 2.5% DMSO) for five times per week. Tumor growth was monitored by calipers with volume calculated using the equation: (π/6 (length×width2)). Body weight during the course of the study was also monitored. At the end of the studies mice were killed and tumors were dissected and weighed. Additionally, prostate, seminal vesicle, testis, kidney, heart, lung, liver, epididymal fat pad and spleen were harvested and weighed. To assess the effect of combining RORγ antagonists and ENZ on the growth of castrated-resistant VCaP xenografts (CRPC-VCaP), first, SCID C.B17 mice were injected with VCaP cells as above to establish the tumors. Then, mice bearing tumors of approximately 180 mm^3 were surgically castrated. They were then observed for tumor regression. Once tumors grew back to the pre-castration size, mice were randomized and treated with vehicle, 5 mg kg^−1 SR2211, 10 mg […] ENZ or a combination of 5 mg kg^−1 SR2211 and 10 mg kg^−1 ENZ. ENZ was given by oral gavage as previously described^68 and SR2211 was administered i.p as above. Mice were excluded from the study if bearing no tumor or tumor with size twice larger or smaller than the mean, at the time of randomization.
# AR = experiment: ARE reporter gene assay (5xARE-tk-luc) in 22Rv1 cells; assay type: cell-based, human
# Method: Transient transfection and reporter gene assays were performed as previously described^49 with the following modifications. ARE reporter gene assays were performed by transfecting 22Rv1 cells with 5×ARE-tk-luc, pcDNA3.1-hAR and pCMV-β-gal for normalization. For transfection with constructs omitted for specific gene expression, corresponding empty vectors were used to ensure equal amount of total DNA used. Briefly, 22Rv1 cells seeded in 96-well plates in hormone-deprived medium supplemented with 10% cds-FBS (Hyclone) were transfected with lipofectamine 2000 (Life technology, Carlsbad, Calif., USA) and the indicated plasmid DNA. Cells were then treated at 12 hours after transfection with 3 nm R1881, indicated concentrations of RORγ antagonists or ENZ for another 24 hours before harvested for β-gal and luciferase assays. For RORE reporter gene assays, 4×AR-RORE-tk-luc was constructed by inserting four copies of the newly identified AR-RORE TTCTGGGTCA (SEQ ID NO: 1) into tk-luciferase reporter vector. AR-RORE mutant form (AR-RORE mut) contains sequences mutated from TTCTGGGTCA (SEQ ID NO: 1) to TTCTGAACGA (SEQ ID NO: 2). […] The luciferase and β-galactosidase were then analyzed with a Luciferase Assay Substrate (Promega) and Luminescent β-galactosidase Detection Kit II (Clontech). […]
compound,measurement,setting,value
"NS(=O)(=O)c1ccc(CC(=O)Nc2cc(Cl)c(-c3ccccc3OC(F)(F)F)c(Cl)c2)cc1 [GSK9b, N-(2,6-dichloro-2′-trifluoromethoxy)-[1,1′-biphenyl]-4-yl-2-(4-sulfamoylphenyl)acetamide]",growth and survival of cancer cells of other types,[1],significant inhibition of the growth and survival
same,growth and survival of breast cancer cells,"breast cancer cells; cells having different major molecular features, 4 days",strongly inhibited the growth and survival of breast cancer cells; also recorded: slightly less effective than GSK805
"CCN1C(=O)c2cccc3c(S(=O)(=O)Nc4ccc5ccncc5c4)ccc1c23 [6f, 1-Ethyl-N-(isoquinolin-7′-yl)-2-oxo-1,2-dihydrobenzo[cd]indole-6-sulfonamide]",inhibition of cell growth and survival in AR-negative cells,AR-negative PCa cells,not in the AR-negative cells
same,inhibition of AR-positive PCa cell growth and survival,AR-positive PCa cells,potent inhibition of AR-positive PCa cell growth and survival
"CC(=O)N1CCN(Cc2ccc(-c3ccc(C(O)(C(F)(F)F)C(F)(F)F)cc3)cc2)CC1.Cl [SR1555, 1-(4-((4′-(1,1,1,3,3,3-hexafluoro-2-hydroxypropan-2-yl)-[1,1′-biphenyl]-4-yl)methyl)piperazin-1-yl)ethanone, monohydrochloride]",inhibition of cell growth and survival in AR-negative cells,AR-negative PCa cells,not in the AR-negative cells
same,growth-inhibitory effect in prostate cancer cells,AR-positive PCa cells,significant inhibitory effects with slightly lower potencies
same,inhibition of AR-positive PCa cell growth and survival,AR-positive PCa cells,potent inhibition of AR-positive PCa cell growth and survival
CC/C(=C(\c1ccccc1)c1ccc(OCCN(C)C)cc1)c1ccccc1 [tamoxifen],growth inhibitory effect of tamoxifen alone,"MCF-7-TamR cell line; MCF-7-TamR, 1 μM of 4(OH)-tamoxifen",did not show any inhibitory effect
same,growth inhibitory effect of tamoxifen in combination with RORγ inhibitors,"MCF-7-TamR cell line; tamoxifen-resistant breast cancer cells, combined with SR2211 or GSK805",synergistic growth inhibitory effect
CC(=O)N1CCN(c2ccc(CN3[C@@H](C)CC[C@H](c4ccccc4)S3(=O)=O)c(F)c2)CC1 [GNE3500],growth and survival of different breast cancer cells,"breast cancer cells; HER2-positive HCC1954, TNBC MDA-MB468 and MDA-MB231, radiation-resistant MCF-7-C6",significant inhibition
"CCN1C(=O)c2cccc3c(S(=O)(=O)Nc4ccc(/N=N/c5ccccc5)cc4)ccc1c23 [7k, (E)-1-ethyl-2-oxo-N-(4′-(phenyldiazenyl)phenyl)-1,2-dihydrobenzo[cd]indole-6-sulfonamide]",inhibition of cell growth and survival in AR-negative cells,AR-negative PCa cells,not in the AR-negative cells
same,inhibition of AR-positive PCa cell growth and survival,AR-positive PCa cells,potent inhibition of AR-positive PCa cell growth and survival
C[C@]12CC[C@H](O)C[C@H]1CC[C@@H]1[C@@H]2CC[C@]2(C)[C@@H](c3ccc(=O)oc3)CC[C@]12O [bufalin],AR expression,AR and AR-V7; C4-2B cells treated with bufalin,dose-dependent inhibition of AR expression
"CCN1C(=O)c2cccc3c(S(=O)(=O)Nc4ccc(OC)c(OC)c4)ccc1c23 [XY011, N-(3′,4′-dimethoxyphenyl)-1-ethyl-2-oxo-1,2-dihydrobenzo[cd]indole-6-sulfonamide]",expression of AR and AR-V7,"AR and AR-V7; C4-2B and VCaP cells, 72 h",potently inhibited the expression of AR and AR-V7 in a dose-dependent manner
same,inhibition of cell growth and survival in AR-negative cells,AR-negative PCa cells,not in the AR-negative cells
same,inhibition of AR-positive PCa cell growth and survival,AR-positive PCa cells,potent inhibition of AR-positive PCa cell growth and survival
same,tumor growth inhibition,"22Rv1 xenografts; XY011 20 mg/kg, i.p., 5 times a week (FIG. 23B)",Strong tumor growth inhibition
same,growth of xenograft tumors,"22Rv1 xenografts; nude mice, SR2211 5 mg/kg i.p., 8k/E11 10 and 20 mg/kg i.p., five times per week (FIG. 3A)",strongly inhibited growth of xenograft tumors
SR3335,growth-inhibitory effect in prostate cancer cells,AR-positive PCa cells,did not display any significant effect
same,inhibition of AR-positive PCa cell growth and survival,AR-positive PCa cells,did not show any significant growth inhibition
C[C@]1(O)CC[C@H]2[C@@H]3CCC4=CC(=O)CCC4=C3C=C[C@@]21C [R1881],response of multimerized ARE-driven reporter,AR,activated

# Reference: patent US10959984B2, “Methods for treating cancer with RORγ inhibitors” (THE REGENTS OF THE UNIVERSITY OF CALIFORNIA, priority 2015, dated 2021)
